Reference: ChEMBL document CHEMBL1143517, “Synthesis and in vitro leishmanicidal activity of 2-(5-nitro-2-furyl) and 2-(5-nitro-2-thienyl)-5-substituted-1,3,4-thiadiazoles” (Bioorg Med Chem Lett, 2005)

Each compound was assayed on Leishmania major (assay: In vitro inhibition of growth of Leishmania major promastigotes with the compound dissolved in DMSO using 3-H thymidine incorporation).
Format: functional, organism-based
Work on O=[N+]([O-])c1ccc(-c2nnc(N3CCOCC3)s2)o1 yielded an IC50 of 5.2 µM. For CC(=O)N1CCN(c2nnc(-c3ccc([N+](=O)[O-])o3)s2)CC1, the IC50 was 1.1 µM. For O=[N+]([O-])c1ccc(-c2nnc(N3CCCCC3)s2)o1, the IC50 was 3.2 µM. O=C(c1ccccc1)N1CCN(c2nnc(-c3ccc([N+](=O)[O-])o3)s2)CC1 was tested, and the IC50 was 0.5 µM. Compound CN1CCN(c2nnc(-c3ccc([N+](=O)[O-])s3)s2)CC1 has an IC50 of 103 µM. For O=[N+]([O-])c1ccc(-c2nnc(N3CCNCC3)s2)o1, the IC50 was 8.9 µM. O=[N+]([O-])c1ccc(-c2nnc(N3CCN(c4ccccc4)CC3)s2)o1 gave an IC50 of 0.1 µM. Compound O=[N+]([O-])c1ccc(-c2nnc(N3CCN(c4ccccc4)CC3)s2)s1 has an IC50 of 106 µM. Work on CN1CCN(c2nnc(-c3ccc([N+](=O)[O-])o3)s2)CC1 yielded an IC50 of 7.3 µM. Compound CC(=O)N1CCN(c2nnc(-c3ccc([N+](=O)[O-])s3)s2)CC1 has an IC50 of 48.5 µM. Work on O=[N+]([O-])c1ccc(-c2nnc(N3CCNCC3)s2)s1 yielded an IC50 greater than 150 µM. In the case of O=C(c1ccccc1)N1CCN(c2nnc(-c3ccc([N+](=O)[O-])s3)s2)CC1, the IC50 is reported as 11.1 µM. In the case of O=[N+]([O-])c1ccc(-c2nnc(N3CCCCC3)s2)s1, the IC50 is reported as greater than 150 µM. O=[N+]([O-])c1ccc(-c2nnc(N3CCOCC3)s2)s1 showed an IC50 of 10.6 µM.
